Experimental data published in patent US12435059B2, “AMP-activated protein kinase inhibitors and methods of making and using the same” (The Regents of the University of Colorado, priority 2019, dated 2025).

What was measured:
BTK = BTK (Homo sapiens (Human), UniProt Q06187); test: Kinome binding analysis at 100 nM, BTK; settings: for BTK inhibition, in words: 100 nM
AMPKα1 = AMPKα1 (Homo sapiens (Human), UniProt Q13131); test: LANCE Eu TR-FRET recombinant kinase assay, AMPK(α1); format: biochemical; settings: mean±S.D. (n=3); ATP 8 μM; read-out: IC50 (nM) AMPK(α1)
Protocol: Assays were performed at 25° C. in a reaction mixture consisting of 2.5 μL serially diluted inhibitor solution, 2.5 μL kinase, 2.5 μL ATP and 2.5 μL substrate. Reagents were incubated for 1 hr before the reaction was halted through the addition of EDTA (10 mM) after which Eu anti-phospho-CREB (Ser133) antibody (PerkinElmer) was added at a final concentration of 2 nM for 1 hr. […] (n=3)).

468 kinases [1] = target: 468 kinases (Homo sapiens, UniProt Q16566); test: biochemical; format: binding; settings: CAMK4; read-out: % Inhibition @ 100 nM
468 kinases [2] = target: 468 kinases (Homo sapiens, UniProt P51451); test: biochemical; format: binding; settings: BLK; read-out: % Inhibition @ 100 nM
468 kinases [3] = target: 468 kinases (Homo sapiens, UniProt P24941); test: biochemical; format: binding; settings: CDK2; read-out: % Inhibition @ 100 nM
468 kinases [4] = target: 468 kinases (Homo sapiens, UniProt Q96RR4); test: biochemical; format: binding; settings: CAMKK2; read-out: % Inhibition @ 100 nM
468 kinases [5] = target: 468 kinases (Homo sapiens, UniProt P53350); test: biochemical; format: binding; settings: PLK1; read-out: % Inhibition @ 100 nM
468 kinases [6] = target: 468 kinases (Homo sapiens, UniProt Q9UEE5); test: biochemical; format: binding; settings: DRAK1; read-out: % Inhibition @ 100 nM
468 kinases [7] = target: 468 kinases (Homo sapiens, UniProt Q16659); test: biochemical; format: binding; settings: ERK3; read-out: % Inhibition @ 100 nM
468 kinases [8] = target: 468 kinases (Homo sapiens, UniProt Q86Z02); test: biochemical; format: binding; settings: HIPK1; read-out: % Inhibition @ 100 nM
468 kinases [9] = target: 468 kinases (Homo sapiens, UniProt P17612); test: biochemical; format: binding; settings: PKAC-alpha; read-out: % Inhibition @ 100 nM
468 kinases [10] = target: 468 kinases (Homo sapiens, UniProt Q9BXA7); test: biochemical; format: binding; settings: TSSK1B; read-out: % Inhibition @ 100 nM
468 kinases [11] = target: 468 kinases (Homo sapiens, UniProt P49759); test: biochemical; format: binding; settings: CLK1; read-out: % Inhibition @ 100 nM
468 kinases [12] = target: 468 kinases (Homo sapiens, UniProt Q04759); test: biochemical; format: binding; settings: PRKCQ; read-out: % Inhibition @ 100 nM
468 kinases [13] = target: 468 kinases (Homo sapiens, UniProt Q9H0K1); test: biochemical; format: binding; settings: SIK2; read-out: % Inhibition @ 100 nM
468 kinases [14] = target: 468 kinases (Homo sapiens, UniProt P27448); test: biochemical; format: binding; settings: MARK3; read-out: % Inhibition @ 100 nM
468 kinases [15] = target: 468 kinases (Homo sapiens, UniProt P00533, T790M); test: biochemical; format: binding; settings: EGFR(T790M); read-out: % Inhibition @ 100 nM
468 kinases [16] = target: 468 kinases (Homo sapiens, UniProt Q99755); test: biochemical; format: binding; settings: PIP5K1A; read-out: % Inhibition @ 100 nM
468 kinases [17] = target: 468 kinases (Homo sapiens, UniProt P80192); test: biochemical; format: binding; settings: MLK1; read-out: % Inhibition @ 100 nM
468 kinases [18] = target: 468 kinases (Homo sapiens, UniProt Q9Y2U5); test: biochemical; format: binding; settings: MAP3K2; read-out: % Inhibition @ 100 nM
468 kinases [19] = target: 468 kinases (Homo sapiens, UniProt Q8WU08); test: biochemical; format: binding; settings: YANK1; read-out: % Inhibition @ 100 nM
468 kinases [20] = target: 468 kinases (Homo sapiens, UniProt O95747); test: biochemical; format: binding; settings: OSR1; read-out: % Inhibition @ 100 nM
468 kinases [21] = target: 468 kinases (Homo sapiens, UniProt Q9UKI8); test: biochemical; format: binding; settings: TLK1; read-out: % Inhibition @ 100 nM
468 kinases [22] = target: 468 kinases (Homo sapiens, UniProt Q02763); test: biochemical; format: binding; settings: TIE2; read-out: % Inhibition @ 100 nM
468 kinases [23] = target: 468 kinases (Homo sapiens, UniProt P42336, H1047Y); test: biochemical; format: binding; settings: PIK3CA(H1047Y); read-out: % Inhibition @ 100 nM
468 kinases [24] = target: 468 kinases (Homo sapiens, UniProt Q6DT37); test: biochemical; format: binding; settings: DMPK2; read-out: % Inhibition @ 100 nM
468 kinases [25] = target: 468 kinases (Homo sapiens, UniProt P22455); test: biochemical; format: binding; settings: FGFR4; read-out: % Inhibition @ 100 nM
468 kinases [26] = target: 468 kinases (Homo sapiens, UniProt P30530); test: biochemical; format: binding; settings: AXL; read-out: % Inhibition @ 100 nM
468 kinases [27] = target: 468 kinases (Homo sapiens, UniProt P42679); test: biochemical; format: binding; settings: CTK; read-out: % Inhibition @ 100 nM
468 kinases [28] = target: 468 kinases (Homo sapiens, UniProt P23458); test: biochemical; format: binding; settings: JAK1(JH1domain-catalytic); read-out: % Inhibition @ 100 nM
[29] = target: JAK1-JH2 domain pseudokinase (Homo sapiens (Human), UniProt P23458); test: Kinome binding analysis at 100 nM, JAK1 JH2 pseudokinase; settings: read-out: Percentage inhibition at 100 nM, JAKI JH2-pseudokinase

Structure (SMILES)	BTK inhibition, in words (BTK)	IC50 (AMPKα1) [nM]	inhibition at 0.1 µM (468 kinases [1]) [%]	inhibition at 0.1 µM (468 kinases [2]) [%]	inhibition at 0.1 µM (468 kinases [3]) [%]	inhibition at 0.1 µM (468 kinases [4]) [%]	inhibition at 0.1 µM (468 kinases [5]) [%]	inhibition at 0.1 µM (468 kinases [6]) [%]	inhibition at 0.1 µM (468 kinases [7]) [%]	inhibition at 0.1 µM (468 kinases [8]) [%]	inhibition at 0.1 µM (468 kinases [9]) [%]	inhibition at 0.1 µM (468 kinases [10]) [%]	inhibition at 0.1 µM (468 kinases [11]) [%]	inhibition at 0.1 µM (468 kinases [12]) [%]	inhibition at 0.1 µM (468 kinases [13]) [%]	inhibition at 0.1 µM (468 kinases [14]) [%]	inhibition at 0.1 µM (468 kinases [15]) [%]	inhibition at 0.1 µM (468 kinases [16]) [%]	inhibition at 0.1 µM (468 kinases [17]) [%]	inhibition at 0.1 µM (468 kinases [18]) [%]	further results
CCN(CC)CCNC(=O)c1c(C)[nH]c(/C=C2\C(=O)Nc3ccc(CCO)cc32)c1C [Compound No. 10, (Z)—N-(2-(Diethylamino)ethyl)-5-((5-(2-hydroxyethyl)-2-oxoindolin-3-ylidene)methyl)-2,4-dimethyl-1H-pyrrole-3-carboxamide]	no observable effect	173 ± 15	0	40	0	29	0	71	0	56	0	0	90.2	0	0	0	0	98	1	77	inhibition at 0.1 µM (468 kinases [19]): 0%; inhibition at 0.1 µM (468 kinases [20]): 0%; inhibition at 0.1 µM (468 kinases [21]): 2%; inhibition at 0.1 µM (468 kinases [22]): 0%; inhibition at 0.1 µM (468 kinases [23]): 4%; inhibition at 0.1 µM (468 kinases [24]): 0%; inhibition at 0.1 µM (468 kinases [25]): 0%; inhibition at 0.1 µM (468 kinases [26]): 88%; inhibition at 0.1 µM (468 kinases [27]): 22%; inhibition at 0.1 µM (468 kinases [28]): 0%; inhibition at 0.1 µM [29]: 54%
CCN(CC)CCNC(=O)c1c(C)[nH]c(/C=C2\C(=O)Nc3ccc(CCC(N)=O)cc32)c1C [Compound No. 16, (Z)-5-((5-(3-Amino-3-oxopropyl)-2-oxoindolin-3-ylidene)methyl)-N-(2-(diethylamino)ethyl)-2,4-dimethyl-1H-pyrrole-3-carboxamide]	no observable effect	107 ± 17	0	29	7	49	28	78	9	92.6	0	4	90.7	0	15	0	30	91.1	5	29	inhibition at 0.1 µM (BTK; read-out: Percentage inhibition at 100 nM, BTK): 0%; inhibition at 0.1 µM (468 kinases [19]): 23%; inhibition at 0.1 µM (468 kinases [20]): 47%; inhibition at 0.1 µM (468 kinases [21]): 0%; inhibition at 0.1 µM (468 kinases [22]): 0%; inhibition at 0.1 µM (468 kinases [23]): 28%; inhibition at 0.1 µM (468 kinases [24]): 20%; inhibition at 0.1 µM (468 kinases [25]): 1%; inhibition at 0.1 µM (468 kinases [26]): 92.5%; inhibition at 0.1 µM (468 kinases [27]): 16%; inhibition at 0.1 µM (468 kinases [28]): 10%; inhibition at 0.1 µM [29]: 41%
